The text below walks through data of patent US12692262B2, “Substituted ureas as orexin receptor agonists” (Merck Sharp & Dohme LLC, priority 2020, dated 2026).

In this test the target is T1, human OX2R (Homo sapiens, UniProt O43614).
T1 construct: expressed in transfected cells; host or cells: CHO (Chinese hamster ovary) cells grown under G418 selection
T1 sequence (O43614 1-444): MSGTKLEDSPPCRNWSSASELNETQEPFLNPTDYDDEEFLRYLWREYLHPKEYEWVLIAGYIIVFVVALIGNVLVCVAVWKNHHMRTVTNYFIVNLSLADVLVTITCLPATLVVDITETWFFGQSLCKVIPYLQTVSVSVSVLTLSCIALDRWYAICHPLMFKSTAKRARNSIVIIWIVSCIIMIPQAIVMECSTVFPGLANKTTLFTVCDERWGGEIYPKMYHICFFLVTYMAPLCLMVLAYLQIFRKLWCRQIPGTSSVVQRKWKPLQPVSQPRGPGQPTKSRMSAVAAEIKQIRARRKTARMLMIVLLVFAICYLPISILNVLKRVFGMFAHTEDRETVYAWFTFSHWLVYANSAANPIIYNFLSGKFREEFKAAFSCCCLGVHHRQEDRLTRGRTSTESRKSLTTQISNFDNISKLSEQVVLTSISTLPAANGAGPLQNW
Put plainly: IPOne (IP-1 accumulation) assay in CHO cells expressing human OX2R. Type of test: cell-based. As to conditions: for EC50: CHO cells expressing human OX2R, IP-One assay, 2 h incubation, four parameter logistic fit, read-out: OX2R Potency, EC50; for % of maximum agonist effect (relative to Orexin A): percent effect vs mean max effect of a reference compound at 1 uM (100% activity vs Orexin A), human OX2R. Summed up: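 CHO cells stably expressing human OX2R, grown in Iscove's modified DMEM with 10% FBS; agonist-driven IP-1 accumulation via the Gαq pathway measured by HTRF (D2/AB-cryptate detection after lysis). EC50 taken as the inflection point of a four-parameter logistic fit.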

Molecules are shown by their SMILES.

As usually defined, the EC50 is the concentration giving half of the maximal effect. Turning to `CCN(C(=O)NC(CC(F)F)C(F)(F)F)[C@H](C)c1cccc(-c2cn3ccnc3c(OC)n2)c1` (stereo partly drawn) [Example 2-52, 1-ethyl-1-((R)-1-(3-(8-methoxyimidazo[1,2-a]pyrazin-6-yl)phenyl)ethyl)-3-(1,1,1,4,4-pentafluorobutan-2-yl)urea], the EC50 came to 35.8 nM and the “% of maximum agonist effect (relative to Orexin A)” value is on record as 100.6%.

For the compound `CCN(C(=O)NC(C1CC(F)(F)CCN1C)C(F)(F)F)[C@H](C)c1cccc(-c2cc(OC)n3nccc3c2)c1` (stereo partly drawn) [Example 2-53, 3-(1-(4,4-difluoro-1-methylpiperidin-2-yl)-2,2,2-trifluoroethyl)-1-ethyl-1-((R)-1-(3-(7-methoxypyrazolo[1,5-a]pyridin-5-yl)phenyl)ethyl)urea], the EC50 worked out at 1.5 nM and the “% of maximum agonist effect (relative to Orexin A)” value is recorded as 101.6%.

For `CCN(C(=O)NC(CCC(C)=O)C(F)(F)F)[C@H](C)c1cccc(-c2cn3ccnc3c(OC)n2)c1` (stereo partly drawn) [Example 2-54, 1-ethyl-1-((R)-1-(3-(8-methoxyimidazo[1,2-a]pyrazin-6-yl)phenyl)ethyl)-3-(1,1,1-trifluoro-5-oxohexan-2-yl)urea], the EC50 came to 1.6 nM and the “% of maximum agonist effect (relative to Orexin A)” value stood at 99.4%.

In the case of `CCN(C(=O)NC(CCC(F)(F)F)C(C)(F)F)[C@H](C)c1cccc(-c2cn3ccnc3c(OC)n2)c1` (stereo partly drawn) [Example 2-55, 1-ethyl-1-((R)-1-(3-(8-methoxyimidazo[1,2-a]pyrazin-6-yl)phenyl)ethyl)-3-(2,2,6,6,6-pentafluorohexan-3-yl)urea], the EC50 amounted to 129 nM and the “% of maximum agonist effect (relative to Orexin A)” value turned out to be 99.4%.

As for `CCOC1(CC(NC(=O)N(CC)[C@H](C)c2cccc(-c3cn4ccnc4c(OC)n3)c2)C(F)(F)F)CC1` (stereo partly drawn) [Example 2-57, 3-(3-(1-ethoxycyclopropyl)-1,1,1-trifluoropropan-2-yl)-1-ethyl-1-((R)-1-(3-(8-methoxyimidazo[1,2-a]pyrazin-6-yl)phenyl)ethyl)urea], the EC50 was found to be 15.3 nM and the “% of maximum agonist effect (relative to Orexin A)” value was 96.2%.

In the case of `CC[C@H](CCC(F)(F)F)NC(=O)N(C)[C@H](C)c1cccc(-c2cn3ccnc3c(OC)n2)c1` [Example 2-58, 1-((R)-1-(3-(8-methoxyimidazo[1,2-a]pyrazin-6-yl)phenyl)ethyl)-1-methyl-3-((R)-6,6,6-trifluorohexan-3-yl)urea], the EC50 came out at 17.8 nM and the “% of maximum agonist effect (relative to Orexin A)” value came to 100.0%.

Take `CCCN(C(=O)N[C@H](CC)CCC(F)(F)F)[C@H](C)c1cccc(-c2cn3ccnc3c(OC)n2)c1` [Example 2-59, 1-((R)-1-(3-(8-methoxyimidazo[1,2-a]pyrazin-6-yl)phenyl)ethyl)-1-propyl-3-((R)-6,6,6-trifluorohexan-3-yl)urea]: the EC50 amounted to 20.9 nM and the “% of maximum agonist effect (relative to Orexin A)” value came to 100.2%.

Consider `CC[C@H](CCC(F)(F)F)NC(=O)N(C(C)C)[C@H](C)c1cccc(-c2cn3ccnc3c(OC)n2)c1` [Example 2-60, 1-isopropyl-1-((R)-1-(3-(8-methoxyimidazo[1,2-a]pyrazin-6-yl)phenyl)ethyl)-3-((R)-6,6,6-trifluorohexan-3-yl)urea], for which the EC50 was found to be 64.4 nM and the “% of maximum agonist effect (relative to Orexin A)” value is recorded as 97.4%.

For `COc1nc(-c2cccc(C(C)N(CC(F)F)C(=O)N[C@@H](CCC(F)(F)F)C(F)(F)F)c2)cn2ccnc12` (stereo partly drawn) [Example 2-61, 1-(2,2-difluoroethyl)-3-((S)-1,1,1,5,5,5-hexafluoropentan-2-yl)-1-(1-(3-(8-methoxyimidazo[1,2-a]pyrazin-6-yl)phenyl)ethyl)urea], the EC50 was 5.8 nM and the “% of maximum agonist effect (relative to Orexin A)” value is reported as 99.5%.

As for `CCN(C(=O)N[C@@H](C)C(F)(F)F)C(c1cnc(OC)c(-c2cn3ccnc3c(OC)n2)c1)C(F)(F)F` (stereo partly drawn) [Example 2-62, 1-ethyl-1-(2,2,2-trifluoro-1-(6-methoxy-5-(8-methoxyimidazo[1,2-a]pyrazin-6-yl)pyridin-3-yl)ethyl)-3-((S)-1,1,1-trifluoropropan-2-yl)urea], the EC50 turned out to be 13.1 nM and the “% of maximum agonist effect (relative to Orexin A)” value is 95.6%.
